Laboratory results from patent US20230074892A1, “BACTERIOPHAGE COMPOSITIONS AND USES THEREOF” (YALE UNIVERSITY, priority 2019, published 2023).

Experiments:
P. aeruginosa bacteria = test: Pyocyanin level in culture supernatant after treatment; type: cell-based; conditions: for bacteria pyocyanin relative to untreated control: single treatment, culture supernatant
Method: Shown is bacteria pyocyanin relative to untreated control. […] When P. aeruginosa bacteria are exposed to treatments along x-axis, the supernatant of the culture is tested for pyocyanin level.

PA14 = test: Pyocyanin production in bacterial cultures; type: cell-based, Pseudomonas aeruginosa; conditions: antibiotic alone
Description: Deletion of type-IV pili is shown to attenuate virulence in P. aeruginosa, by impairing pyocyanin production, twitching motility, and biofilm formation (Persat et al. (2015) Proc. Natl. Acad. Sci. 112:7563-7568). Phage TIVP-H6 selects for phage resistance in P. aeruginosa via bacterial alteration or loss of type-IV pili.

Row | SMILES | killing of bacteria in the pyocyanin assay (P. aeruginosa bacteria) | bacteria pyocyanin relative to untreated control (P. aeruginosa bacteria) | effect of antibiotic on pyocyanin production (PA14)
1 | CC[C@H]1OC(=O)[C@H](C)[C@@H](O[C@H]2C[C@@](C)(OC)[C@@H](O)[C@H](C)O2)[C@H](C)[C@@H](O[C@@H]2O[C@H](C)C[C@H](N(C)C)[C@H]2O)[C@](C)(O)C[C@@H](C)C(=O)[C@H](C)[C@@H](O)[C@]1(C)O [Eythromycin] | does not kill bacteria in this assay | causes reduced pyocyanin production | –
2 | CCn1cc(C(=O)O)c(=O)c2ccc(C)nc21 [Nalidixic acid] | – | do not reducte production | –
3 | O=C(O)c1cn(C2CC2)c2cc(N3CCNCC3)c(F)cc2c1=O [Ciprofloxacin] | – | do not reducte production | either increased or did not affect
4 | CC1(C)S[C@@H]2[C@H](NC(=O)C(C(=O)O)c3ccccc3)C(=O)N2[C@H]1C(=O)O (stereo partly drawn) [Carbenicillin] | – | do not reducte production | –
